Publication PMC9785280, “Synthesis, Antiproliferative Evaluation and QSAR Analysis of Novel Halogen- and Amidino-Substituted Benzothiazoles and Benzimidazoles” (International Journal of Molecular Sciences, 2022)

What was measured:
[1] = tested on: MDCK1 (Madin–Darby canine kidney) cells; experiment: MTT antiproliferative assay, non-tumor MDCK1 cells; format: cell-based; details: Canis lupus familiaris, MDCK1, 72 h, mean ± SD of three independent experiments, normal cells
In short: (§1)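 72 h growth inhibition; cpds 10^−7–10^−4 M; DMEM/10% FBS (adherent) or RPMI/10% FBS (suspension), 37 °C/5% CO2; MTT 4 h; formazan in DMSO (adherent) or 10% SDS/0.01 M HCl (suspension); OD 595 nm; GI50 via variable-slope fit.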

[2] = tested on: human fibroblasts (BJ); experiment: MTT antiproliferative assay, normal BJ fibroblasts; format: cell-based; details: for IC50: Homo sapiens, Fibroblast, 72 h, MTT, mean ± SD of three independent experiments, normal cells
In short: as §1

[3] = tested on: HeLa (cervical adenocarcinoma) cells; experiment: MTT antiproliferative assay, HeLa; format: cell-based; details: Homo sapiens, 72 h, mean ± SD of three independent experiments
In short: as §1

[4] = tested on: CaCo-2 (colon adenocarcinoma) cells; experiment: MTT antiproliferative assay, CaCo-2; format: cell-based, human; details: for IC50: Homo sapiens, Caco-2, 72 h, MTT, mean ± SD of three independent experiments; for SI (MDCK) CaCo-2: SI = IC50 MDCK1 / IC50 CaCo-2
In short: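 CaCo-2 cells, plated at 2 × 10^4 cells/mL in DMEM with 10 % FBS at 37 °C/5% CO2, were treated 24 h later with five 10-fold dilutions (10^−7 to 10^−4 M) for 72 h. Viability was measured by MTT (4 h, formazan dissolved in DMSO, OD 595 nm) against background and untreated controls. GI50 came from log-concentration versus percent-inhibition fits.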

[5] = tested on: HuT78 (T-cell lymphoma) cells; experiment: MTT antiproliferative assay, HuT78; format: cell-based, human; details: for IC50: 72 h, MTT, mean ± SD of three independent experiments; for SI (BJ) HuT78: SI = IC50 BJ / IC50 HuT78; for SI (MDCK) HuT78: SI = IC50 MDCK1 / IC50 HuT78
In short: as §1

[6] = tested on: SW620 (colorectal adenocarcinoma, metastatic) cells; experiment: MTT antiproliferative assay, SW620; format: cell-based, human; details: for IC50: Homo sapiens, SW-620, 72 h, MTT, mean ± SD of three independent experiments, read-out: IC50 (µM) SW620
Method: (§2) The growth inhibition activity was assessed according to the slightly modified procedure performed at the National Cancer Institute, Developmental Therapeutics Program.
(§3) Examined compounds were dissolved in DMSO (1 × 10^−2 M). The experiments were carried out on seven human tumor cell lines and two normal cell lines. The following cell lines were used: HeLa (human cervical adenocarcinoma; purchased from ATCC), CaCo-2 (human colorectal adenocarcinoma), HuT78 (T-cell lymphoma), THP-1 (acute monocytic leukemia), SW620 (colorectal adenocarcinoma, metastatic), MDA-MB-231 (human breast adenocarcinoma), HL60 (promyelocytic leukemia cell line), foreskin fibroblast cells (BJ) and MDCK1 (Madine–Darby canine kidney fibroblast like cells). MDCK1 cells were used between 24 and 26 passages.
(§4) Adherent cells were cultured in the Dulbecco’s modified Eagle medium—DMEM (Gibco, EU) supplemented with 10 % heat-inactivated fetal bovine serum (FBS, Gibco, EU), 2 mM glutamine, and 100 U/0.1 mg penicillin/streptomycin. Cells on suspension were cultured in RPMI 1640 (Gibco, EU) medium supplemented with 10 % FBS (Gibco, EU), 2 mM glutamine, 1 mM sodium pyruvate, 10 mM HEPES. Cells were grown in humidified atmosphere under the conditions of 37 °C/5% of CO2 gas in the CO2 incubator (IGO 150 CELLlife^TM, JOUAN, Thermo Fisher Scientific, Waltham, MA, USA). A erythrosin B (Sigma-Aldrich, St. Louis, MO, USA) dye exclusion method was used to assess cell viability before plating.
(§5) Adherent cells (HeLa, CaCo-2, MCF-7 and MDCK-1) were plated in 96-well flat bottom plates (Greiner, Frickenhausen, Austria) at a concentration of 2 × 10^4 cells/mL. Suspension cells (THP-1 and HuT78) were plated in 96-well microtiter plates (Sarstead, Newton, USA) at a concentration of 1 × 10^5 cells/mL. Twenty-four hours later, cells were treated with test agents in […] 10-fold dilutions ([…] to 10^−4 M) and incubated for further 72 h. Working dilutions were freshly prepared on the day of testing. The solvent was also tested for eventual inhibitory activity by adjusting its concentration to be the same as in working concentrations. After 72 h of incubation, the cell growth rate was evaluated by performing the MTT assay, which detects dehydrogenase activity in viable cells. For this purpose, upon completion of the incubation period, growth medium was discarded and 50 μL of MTT was added to each well at a concentration of 5 mg/mL. After four hours of incubation at 37 °C, water insoluble MTT-formazan crystals were dissolved in 150 μL of dimethyl-sulfoxide (DMSO) for adherent cells, and in 10 % SDS with 0.01 M/L HCl for cells grown in suspension. The absorbance (OD, optical density) was measured on a microplate reader (iMark, BIO RAD, Hercules, CA, USA) at 595 nm.
(§6) Percent of life cells was calculated as follows: % = OD (sample)–OD (background)/OD (control)–OD (background) × 100.
(§7) Optical density (OD) of background for adherent cells is the OD of MTT solution and DMSO; OD (background) for suspension cells is OD of the culture medium with MTT and 10% SDS with 0.01 M/L HCl; OD (control) is the OD of the cells growth without tested compounds.
(§8) Calculation of GI50 value curves and QC analysis is performed by using the Excel tools and GraphPadPrism software (La Jolla, CA), v. 5.03. Briefly, individual concentration effect curves are generated by plotting the logarithm of the concentration of tested compounds(X) vs. corresponding percent inhibition values (Y) using least squares fit. The best fit GI50 values are calculated using Log (inhibitor) versus normalized response—Variable slope equation, where Y Ľ 100/(1 ţ 10 ((LogIC50 _ X) * HillSlope)). QC criteria parameters (Z0, S:B, R2, HillSlope) were checked for every GI50 curve.

[7] = tested on: MDA-MB-231 (human breast adenocarcinoma) cells; experiment: MTT antiproliferative assay, MDA-MB-231; format: cell-based; details: for IC50: Homo sapiens, MDA-MB-231, 72 h, MTT, mean ± SD of three independent experiments
Method: as §2, §3, §4, §5, §6, §7, §8

[8] = tested on: HL60 (promyelocytic leukemia) cells; experiment: MTT antiproliferative assay, HL60; format: cell-based, human; details: for IC50: Homo sapiens, HL-60, 72 h, MTT, mean ± SD of three independent experiments; for SI (MDCK) HL60: SI = IC50 MDCK1 / IC50 HL60; for SI (BJ) HL60: SI = IC50 BJ / IC50 HL60
Method: as §2, §3, §4, §5, §6, §7, §8

[9] = tested on: THP1 (human monocytic leukemia) cells; experiment: MTT antiproliferative assay, THP1; format: cell-based; details: for IC50: Homo sapiens, THP-1, 72 h, MTT, mean ± SD of three independent experiments; for SI (MDCK) THP1: SI = IC50 MDCK1 / IC50 THP1
Method: as §2, §3, §4, §5, §6, §7, §8

Structure (SMILES) | IC50 [1] | IC50 [2] | IC50 [3] | IC50 [4] | SI (MDCK) CaCo-2 [4] | IC50 ([5]; Homo sapiens, HuT78, 72 h) | SI (BJ) HuT78 [5] | SI (MDCK) HuT78 [5] | IC50 [6] | IC50 [7] | IC50 [8] | SI (MDCK) HL60 [8] | IC50 [9] | SI (MDCK) THP1 [9] | SI (BJ) HL60 [8] | other results
COc1cc(-c2nc3ccc(C4=NCCCN4)cc3s2)ccc1OCc1ccccn1 [39c] | > 100 µM | 38.1 ± 1.4 µM | > 100 µM | 34.7 ± 2.8 µM | 2.87 | 12.7 ± 0.9 µM | 3 | 7.87 | 34.2 ± 7.1 µM | 38.5 ± 1.6 µM | 31.1 ± 3 µM | 3.22 | 69.7 ± 6.3 µM | 1.43 |  | SI (MDCK) SW620 ([6]; SI = IC50 MDCK1 / IC50 SW620): 2.92; SI (MDCK) MDA-MB-231 ([7]; SI = IC50 MDCK1 / IC50 MDA-MB-231): 2.6
COc1cc(-c2nc3ccc(C4=NCCCN4)cc3[nH]2)ccc1OCc1cn(CCN2CCOCC2)nn1 [46c] | > 100 µM | > 100 µM | > 100 µM | > 100 µM |  | 4.1 µM |  | 19.6 | > 100 µM | > 100 µM | 50.7 ± 20.5 µM | 1.97 | > 100 µM |  | 1.97 | toxicity to normal BJ cells (in words) [2]: not toxic; IC50 [5]: 5.1 ± 4.2 µM
O=C(COc1ccc(-c2nc3ccc(C4=NCCCN4)cc3s2)cc1F)c1ccccc1 [38b] | 26.6 ± 3.1 µM | 32.2 ± 2.8 µM | 22.1 ± 1.2 µM | 19.4 ± 4.7 µM | 1.37 | 4 ± 0.9 µM | 8.05 | 6.65 | 30.5 ± 9.2 µM | 42.4 ± 7.2 µM | 15.8 ± 2.3 µM | 1.68 | 14.7 ± 4.1 µM | 1.8 | 2.04 | SI (BJ) CaCo-2 ([4]; SI = IC50 BJ / IC50 CaCo-2): 1.66; SI (BJ) THP1 ([9]; SI = IC50 BJ / IC50 THP1): 2.19
COc1cc(-c2nc3ccc(C4=NCCN4)cc3s2)ccc1OCc1c[nH]nn1.Cl [36c, 2-(3-Methoxy-4-((1H-1,2,3-triazol-4-yl)methoxy)phenyl)-6-(4,5-dihydro-1H-imidazol-2-yl)benzothiazole hydrochloride] | > 100 µM | > 100 µM | > 100 µM | > 100 µM |  | 1.6 ± 0.8 µM |  | 62.5 | > 100 µM | > 100 µM | > 100 µM |  | > 100 µM |  |  | 
O=C(COc1ccc(-c2nc3ccc(C4=NCCCN4)cc3[nH]2)cc1F)c1ccccc1 [42b] | 67.3 ± 12.7 µM | 47 ± 3.3 µM | > 100 µM | > 100 µM |  | 11.9 ± 3.6 µM | 3.95 | 5.66 | 92.7 ± 34.3 µM | 84.5 ± 18.3 µM | 44.4 ± 12.6 µM | 1.51 | > 100 µM |  |  | 
